US11186566B2, “Modulator of cystic fibrosis transmembrane conductance regulator, pharmaceutical compositions, methods of treatment, and process for making the modulator” (Vertex Pharmaceuticals Incorporated, priority 2016, dated 2021)
Entries after “also recorded” stand apart in the source; their conditions may differ. Read-outs that look alike come from different tables or passages of the source.

Experiments:
[1] = Metabolism of Compound 1 in vitro and in vivo
Method: Compound 1 and the metabolites shown in the following table were prepared and tested.

F508del-CFTR [2] = target: T1, F508del-CFTR (Homo sapiens (Human), UniProt P13569, DEL508-508); test: Ussing chamber chloride transport experiments in HBE cells; type: cell-based; conditions: Ussing Chamber, F508del/F508del-HBE cells
T1 sequence (P13569 other isoform, or with tags, fused parts or gaps del F508-F508): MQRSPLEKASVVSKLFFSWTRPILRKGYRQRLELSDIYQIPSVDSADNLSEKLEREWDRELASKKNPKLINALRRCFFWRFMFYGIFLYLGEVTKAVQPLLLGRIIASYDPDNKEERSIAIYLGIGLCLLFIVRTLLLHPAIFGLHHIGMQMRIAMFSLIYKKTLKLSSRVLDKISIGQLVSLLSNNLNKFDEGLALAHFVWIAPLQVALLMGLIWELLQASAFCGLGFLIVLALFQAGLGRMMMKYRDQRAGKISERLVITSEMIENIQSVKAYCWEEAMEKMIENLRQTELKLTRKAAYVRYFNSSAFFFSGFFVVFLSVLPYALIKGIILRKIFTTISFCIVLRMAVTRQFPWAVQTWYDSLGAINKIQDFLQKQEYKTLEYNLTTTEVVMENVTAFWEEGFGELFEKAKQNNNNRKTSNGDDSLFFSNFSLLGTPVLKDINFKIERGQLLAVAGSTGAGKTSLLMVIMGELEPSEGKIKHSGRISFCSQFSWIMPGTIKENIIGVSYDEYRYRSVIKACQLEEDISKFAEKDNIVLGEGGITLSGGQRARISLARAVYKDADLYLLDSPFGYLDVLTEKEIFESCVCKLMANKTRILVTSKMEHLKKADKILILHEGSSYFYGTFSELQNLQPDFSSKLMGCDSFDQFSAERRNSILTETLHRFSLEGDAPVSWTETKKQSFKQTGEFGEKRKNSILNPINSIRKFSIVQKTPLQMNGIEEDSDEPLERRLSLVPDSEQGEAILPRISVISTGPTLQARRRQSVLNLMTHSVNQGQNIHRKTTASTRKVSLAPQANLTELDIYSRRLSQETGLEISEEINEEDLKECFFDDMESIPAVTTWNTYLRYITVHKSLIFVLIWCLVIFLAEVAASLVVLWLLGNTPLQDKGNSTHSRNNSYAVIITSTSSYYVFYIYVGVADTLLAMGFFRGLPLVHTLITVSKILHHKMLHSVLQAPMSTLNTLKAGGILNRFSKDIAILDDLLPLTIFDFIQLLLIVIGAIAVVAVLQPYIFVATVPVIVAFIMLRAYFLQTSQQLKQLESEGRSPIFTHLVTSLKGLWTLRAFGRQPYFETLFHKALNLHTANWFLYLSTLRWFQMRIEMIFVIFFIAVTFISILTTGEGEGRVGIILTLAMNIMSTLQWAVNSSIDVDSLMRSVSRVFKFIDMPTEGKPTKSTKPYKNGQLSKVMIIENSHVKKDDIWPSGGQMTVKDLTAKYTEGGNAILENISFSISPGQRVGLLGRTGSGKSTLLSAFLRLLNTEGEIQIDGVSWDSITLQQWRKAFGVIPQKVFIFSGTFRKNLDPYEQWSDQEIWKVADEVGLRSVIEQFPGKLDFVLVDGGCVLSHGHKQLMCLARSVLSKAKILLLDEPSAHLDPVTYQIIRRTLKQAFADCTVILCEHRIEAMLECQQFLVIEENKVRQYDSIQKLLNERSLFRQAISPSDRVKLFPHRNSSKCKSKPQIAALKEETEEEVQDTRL
Method: Ussing chamber experiments were performed on polarized airway epithelial cells expressing F508del to further characterize the F508del modulators identified in the optical assays. Non-CF and CF airway epithelia were isolated from bronchial tissue, cultured as previously described (Galietta, L. J. V., Lantero, S., Gazzolo, A., Sacco, O., Romano, L., Rossi, G. A., & Zegarra-Moran, O. (1998) In Vitro Cell. Dev. Biol. 34, 478-481), and plated onto Costar® Snapwell™ filters that were precoated with NIH3T3-conditioned media. After four days the apical media was removed and the cells were grown at an air liquid interface for >14 days prior to use. […] CF-HBE were isolated from patients homozygous for […] or compound heterozygous for F508del with an different disease causing mutation on the other allele.
HBE grown on Costar® Snapwell™ cell culture inserts were mounted in an Ussing chamber (Physiologic Instruments, Inc., San Diego, Calif.), and the transepithelial resistance and short-circuit current in the presence of a basolateral to apical Cl^− gradient (ISC) were measured using a voltage-clamp system (Department of Bioengineering, University of Iowa, Iowa). Briefly, HBE were examined under voltage-clamp recording conditions (Vhold=0 mV) at 37° C. The basolateral solution contained (in mM) 145 NaCl, 0.83 K2HPO4, 3.3 KH2PO4, 1.2 MgCl2, 1.2 CaCl2, 10 Glucose, 10 HEPES (pH adjusted to 7.35 with NaOH) and the apical solution contained (in mM) 145 NaGluconate, 1.2 MgCl2, 1.2 CaCl2, 10 glucose, 10 HEPES (pH adjusted to 7.35 with NaOH).
Typical protocol utilized a basolateral to apical membrane Cl^− concentration gradient. To set up this gradient, normal ringers was used on the basolateral membrane, whereas apical NaCl was replaced by equimolar sodium gluconate (titrated to pH 7.4 with NaOH) to give a large Cl^− concentration gradient across the epithelium. Modulators were added either to the basolateral side […] to assay or to the apical side during the assay. Forskolin (10 μM) was added to the apical side during the assay to stimulate CFTR-mediated Cl^− transport. […]

F508del-CFTR [3] = target: T1, F508del-CFTR; test: F508del-CFTR processing and trafficking in vitro (170 to 180 kDa band); type: cell-based; conditions: for increase in steady-state levels, fold of untreated levels: F508del/F508del-HBE cells, 16 to 24 hours
From the text: The CFTR protein delivered to the cell surface by Compound 1 alone or in combination with Compound II (Compound I/Compound II) was potentiated by Compound III.

F508del-CFTR [4] = target: T1, F508del-CFTR; test: Membrane potential optical (fluorescent voltage sensing dye, FLIPR III) HTS assay for F508del-CFTR modulators; type: cell-based
How it was run: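 NIH3T3 mouse fibroblasts stably expressing F508del-CFTR were seeded on matrigel-coated plates for 18–24 h at 37 °C. For correction assays they were cultured with or without compound for that period. Membrane potential was read on FLIPR III with voltage-sensing dyes, using a pH 7.4 NaCl/HEPES bath and a chloride-free gluconate substitute solution.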

Rat IV and PO PK studies = type: in vivo, male Sprague-Dawley rats; conditions: male, Sprague-Dawley, plasma
human PXR = human PXR (Homo sapiens (Human), UniProt O75469); test: PXR assay (PXR mediated CYP3A4 induction, DPX-2 cell line); type: cell-based; conditions: DPX-2 cells, 48 hours, 0.1 to 60 μM
Chain of human PXR (O75469 whole entry): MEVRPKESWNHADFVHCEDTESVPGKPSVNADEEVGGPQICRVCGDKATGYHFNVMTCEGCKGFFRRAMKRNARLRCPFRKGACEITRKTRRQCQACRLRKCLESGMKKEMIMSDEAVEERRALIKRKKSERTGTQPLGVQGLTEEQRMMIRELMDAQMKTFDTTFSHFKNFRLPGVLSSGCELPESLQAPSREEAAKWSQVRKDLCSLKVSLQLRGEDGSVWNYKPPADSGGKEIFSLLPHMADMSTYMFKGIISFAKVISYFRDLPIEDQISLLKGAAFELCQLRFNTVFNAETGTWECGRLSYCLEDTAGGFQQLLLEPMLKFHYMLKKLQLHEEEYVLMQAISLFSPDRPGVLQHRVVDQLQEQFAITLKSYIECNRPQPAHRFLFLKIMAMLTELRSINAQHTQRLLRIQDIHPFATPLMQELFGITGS
How it was run: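 HepG2-derived DPX-2 cells stably carrying human PXR and a CYP3A4 promoter–luciferase reporter, exposed 48 h to 11 doses (0.1–60 μM); rifampicin positive control. Viability by fluorescence, then luciferase luminescence; reports max fold induction over vehicle and EC50.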

## C[C@@H]1CN(c2nc(-n3ccc(OCCC4(C(F)(F)F)CC4)n3)ccc2C(=O)NS(=O)(=O)c2ccccc2)C(C)(C)C1 [Compound 1, N-(benzenesulfonyl)-6-[3-[2-[1-(trifluoromethyl)cyclopropyl]ethoxy]pyrazol-1-yl]-2-[(4S)-2,2,4-trimethylpyrrolidin-1-yl]pyridine-3-carboxamide]
[1]
  metabolism: metabolized both in vitro and in vivo, mostly by oxidative metabolism
F508del-CFTR [2]
  chloride transport: enhanced chloride transport
  effect on chloride transport in relation to the effect of Compound II: additive to the effect of Compound II
F508del-CFTR [3]
  increase in steady-state levels, fold of untreated levels: 6.5 fold
F508del-CFTR [3]; Compound 1 in combination with 3 μM Compound II
  increase in steady-state levels, fold of untreated levels: 18.7 fold
F508del-CFTR [3]; in vitro
  processing and trafficking of F508del-CFTR: improved the processing and trafficking of F508del-CFTR; also recorded: facilitates the processing and trafficking of F508del-CFTR
F508del-CFTR [4]; F508del NIH 3T3 cells, assay 5A-A1, read-out: CFTRdF508 EC50
  EC50: < 100 nM
F508del-CFTR [4]; F508del NIH 3T3 cells, assay 5A-A1, read-out: EC50
  EC50: < 3000 nM
F508del-CFTR [4]; NIH3T3, F508del NIH 3T3 cells, relative to Compound II, read-out: % Efficacy relative to Compound II
  Emax: ≥ 100%
F508del-CFTR [4]; Table 7, Compound 1 and metabolites, read-out: CFTRdF508 EC50
  EC50: 30 nM
F508del-CFTR [4]; Table 9, read-out: CFTR dF508 EC50
  EC50: 30 nM
Rat IV and PO PK studies; 3 mg/kg, oral, read-out: Rat po % F
  bioavailability: 63%
Rat IV and PO PK studies; intravenous, 3.0 mg/kg, read-out: Rat iv CL
  clearance: 1.6 mL/min/kg
Rat IV and PO PK studies; oral, 3 mg/kg
  AUC: 21000 ng·h/mL
Human PXR
  PXR Max Induction (% of rifampicin): 3 % of rifampicin
